Measurements from patent publication US11052154B2, “Ras protein degradation inducing molecule and pharmaceutical composition” (Tokyo University of Science Foundation, priority 2016, dated 2021).

Tests used:
[1] = molecular target: T1, wild-type K-Ras protein (Homo sapiens, UniProt P01116); assay: Degradation (knockdown) of wild-type K-Ras protein forcibly expressed in HeLa cells, FACS analysis; assay type: cell-based; conditions: FIG. 1
T1 construct: expressed in transfected cells; host or cells: HeLa
Experimental: In Example 2, degradation (knockdown) of a wild-type K-Ras protein forcibly expressed in HeLa cells (human cervical cancer cells) through TUS-007 was evaluated by FACS analysis. […] The full-length cDNA clone (Accession No. AK292510) of a human K-ras gene was purchased from Independent Administrative Institution, the National Institute of Technology and Evaluation. PCR amplification was performed using KOD-Plus-Neo (TOYOBO CO., LTD) as a PCR enzyme. The plasmid was introduced into HeLa cells to transiently overexpress a wild-type K-Ras protein (specifically, a fusion protein of a wild-type K-Ras protein and GFP via a HA tag) or a DsRed protein for comparison in the […] (Wako Pure Chemical Industries, Ltd.) as a transfection reagent was used to introduce the plasmid into HeLa cells by a routine procedure. […] Culture was performed for 40 hours after introduction of the plasmid, and then TUS-007 was added to HeLa cells as follows. […] A BD FACSCantoTM II (BD Biosciences) was used for flow cytometry, and the expression levels of GFP and the DsRed protein in the cells were quantified. […] The GFP/DsRed ratio per cell was computed using an analysis software FlowJoTM (TOMY Digital Biology Co., Ltd.), and degradation (knockdown) of the wild-type K-Ras protein by TUS-007 was determined from a shift in a graph.

[2] = tested on: HeLa cells; assay: Apoptosis induction in HeLa cells, FACS analysis (Annexin V/PI); assay type: cell-based, human; conditions: HeLa cells expressing wild-type K-Ras, 24 hours after addition; FIGS. 6A, 7A
Experimental: In Example 7, apoptosis induction in a case where TUS-007, Ras-SOS, or Ras-SOS-NH2 was added to HeLa cells or SW1990 cells (human pancreatic cancer cells) had been added was evaluated by the FACS analysis. It is noted that in HeLa cells, the wild-type K-Ras protein (K-Ras-WT) is expressed, and in SW1990 cells, the G12D mutant K-Ras protein (K-Ras-G12D) is expressed.
HeLa cells or SW1990 cells were seeded in a 24-well plate at a cell density of 8×10^4 cells/well, and then cultured under conditions of 37° C. and 5 vol % CO2 for 16 hours.
After 16 hours from cell seeding, TUS-007, Ras-SOS, or Ras-SOS-NH2 were added to HeLa cells or SW1990 cells as follows. As a medium, a serum-free medium (37° C.) in which 1 mass % L-glutamine solution (Sigma-Aldrich) was added to D-MEM (high D-glucose, phenol red, sodium pyruvate (Wako Pure Chemical Industries, Ltd.)) was used. It is noted that the L-glutamine solution was added immediately before use. A DMSO solution containing TUS-007, Ras-SOS, or Ras-SOS-NH2 was mixed with the medium so that the concentration of DMSO was 1 vol %, and added to each well at 500 μL/well, and cultured under conditions of 37° C. and 5 vol % CO2. As a control, DMSO was used.
The medium was removed 24 hours after addition of TUS-007, Ras-SOS, or Ras-SOS-NH2, and then PBS was added to wash the cells. After removing PBS, trypsin (0.25 w/v % trypsin-1 mmol/L EDTA⋅4 Na solution with phenol red) (Wako Pure Chemical Industries, Ltd.) at 37° C. was added to each well at 200 μL/well, and cultured under conditions of 37° C. and 5 vol % CO2 for 1 minute. […]
A BD FACSCanto™ II (BD Biosciences) was used for flow cytometry. […] The proportion of Annexin V-positive and PI-negative cells was calculated using an analysis software FlowJo™ (TOMY Digital Biology Co., Ltd.), and the proportion was defined as a proportion of apoptosis cells.
In Example 8, apoptosis induction in a case where TUS-007, Ras-SOS-NH2, or erlotinib as an anticancer agent (EGFR inhibitor) was added to HeLa cells or SW1990 cells was evaluated by FACS analysis as in Example 7.

T1 sequence (P01116 1-188 isoform P01116-2): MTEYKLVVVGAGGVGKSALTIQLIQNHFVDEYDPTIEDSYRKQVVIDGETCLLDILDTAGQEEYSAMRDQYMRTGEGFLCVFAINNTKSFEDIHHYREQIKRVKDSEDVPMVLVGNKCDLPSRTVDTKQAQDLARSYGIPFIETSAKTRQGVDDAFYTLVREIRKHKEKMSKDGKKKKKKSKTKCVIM

CCC(C)[C@H](NC(=O)CCCCCCNC(=O)[C@H](CC(C)C)NC(=O)CNC(=O)c1cc(Cl)ccc1Cl)C(=O)Nc1ccc2[nH]c(Cc3c[nH]c4ccccc34)nc2c1 (stereo in doubt) [TUS-007]
degradation (knockdown) of the wild-type K-Ras protein (shift of GFP/DsRed ratio graph) ([1]; 24 hours after addition, vs control (DMSO)): degradation of the wild-type K-Ras protein was induced | degradation of the wild-type K-Ras protein when both TUS-007 and MLN2238 were added ([1]; MLN2238 co-added, compared with TUS-007 alone): degradation of the wild-type K-Ras protein was inhibited | apoptosis induction (proportion of Annexin V-positive and PI-negative cells) [2]: apoptosis was induced in a concentration-dependent manner
